Measurements taken from PubChem BioAssay (NCI).
Where “and” joins values, the source holds several entries; their conditions need not be identical. Equal values may be shown once.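 In this assay, cells in 96-well plates receive the compound at five concentrations for 48 hours. Endpoints are linearly interpolated between the surrounding concentrations. The concentration for 50% growth inhibition is given as GI50. TGI is the concentration that stops growth completely.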

What was measured:
Experiment in all cases: inhibition of tumour cell growth, NCI panel, 48 h
[1] = test system: SF-268 CNS
[2] = test system: SNB-75 CNS
[3] = test system: SK-MEL-5 melanoma
[4] = test system: 786-0 renal
[5] = test system: BT-549 breast
[6] = test system: ACHN renal
[7] = test system: EKVX NSCLC
[8] = test system: K-562 leukemia
[9] = test system: SK-MEL-28 melanoma
[10] = test system: SN12C renal
[11] = test system: NCI-H522 lung
[12] = test system: OVCAR-3 ovarian
[13] = test system: MOLT-4 leukemia
[14] = test system: SF-295 CNS
[15] = test system: DU-145 prostate
[16] = test system: NCI/ADR-RES ovarian
[17] = test system: SNB-19 CNS
[18] = test system: CCRF-CEM leukemia
[19] = test system: SK-MEL-2 melanoma
[20] = test system: IGROV1 ovarian
[21] = test system: NCI-H226 lung
[22] = test system: RPMI-8226 leukemia
[23] = test system: HL-60(TB) leukemia
[24] = test system: PC-3 prostate
[25] = test system: OVCAR-8 ovarian
[26] = test system: COLO 205 colon
[27] = test system: OVCAR-5 ovarian
[28] = test system: HOP-62 NSCLC
[29] = test system: KM12 colon
[30] = test system: MDA-MB-435
[31] = test system: SK-OV-3 ovarian
[32] = test system: OVCAR-4 ovarian
[33] = test system: MALME-3M melanoma
[34] = test system: MCF7 breast
[35] = test system: UACC-257 melanoma
[36] = test system: TK-10 renal
[37] = test system: UO-31 renal
[38] = test system: SF-539 CNS
[39] = test system: HCT-116 colon
[40] = test system: M14 melanoma
[41] = test system: HS 578T breast
[42] = test system: CAKI-1 renal
[43] = test system: U251 CNS
[44] = test system: LOX IMVI melanoma
[45] = test system: HOP-92 NSCLC
[46] = test system: UACC-62 melanoma
[47] = test system: A549 NSCLC
[48] = test system: HCT-15 colon
[49] = test system: NCI-H23 lung
[50] = test system: A498 renal
[51] = test system: T-47D breast
[52] = test system: HCC-2998 colon
[53] = test system: HT29 colon
[54] = test system: NCI-H460 lung
[55] = test system: RXF 393 renal
[56] = test system: MDA-MB-231 breast
[57] = test system: SW-620 colon

SMILES: CC[C@H](C)n1cc(C)c2c(C(=O)NCc3c(C)cc(C)[nH]c3=O)cc(-c3ccc(N4CCNCC4)nc3)cc21
- GI50 [1]: 14.7 µM and 13 µM
- TGI [1]: 29.8 µM and 27.8 µM
- GI50 [2]: 6.12 µM and 3.63 µM
- TGI [2]: 19.8 µM and 17.6 µM
- GI50 [3]: 15.8 µM and 6.13 µM
- TGI [3]: 29.2 µM and 18 µM
- GI50 [4]: 10.6 µM and 11.7 µM
- TGI [4]: 24.4 µM and 25.2 µM
- GI50 [5]: 15.4 µM and 13.5 µM
- TGI [5]: 30.5 µM and 27.7 µM
- GI50 [6]: 17.1 µM and 16.5 µM
- TGI [6]: 31.2 µM and 31.3 µM
- GI50 [7]: 12.6 µM and 13.6 µM
- TGI [7]: 27 µM and 27.6 µM
- GI50 [8]: 2.87 µM and 3.2 µM
- TGI [8]: 8.09 µM and 10.9 µM
- GI50 [9]: 14.1 µM and 6.51 µM
- TGI [9]: 27.8 µM and 19.9 µM
- GI50 [10]: 13.8 µM and 13.7 µM
- TGI [10]: 27.9 µM and 28.6 µM
- GI50 [11]: 17.6 µM and 14 µM
- TGI [11]: 34.2 µM and 29.5 µM
- GI50 [12]: 14.2 µM
- TGI [12]: 27.4 µM and 28.2 µM
- GI50 [13]: 5.87 µM and 6.18 µM
- TGI [13]: 20.6 µM and 22 µM
- GI50 [14]: 16.2 µM and 14.8 µM
- TGI [14]: 31.9 µM and 29.3 µM
- GI50 [15]: 14.7 µM and 15.1 µM
- TGI [15]: 27.9 µM and 28.7 µM
- GI50 [16]: 35.1 µM and 17.6 µM
- TGI [16]: > 100 µM and 33.7 µM
- GI50 [17]: 14.9 µM and 12.7 µM
- TGI [17]: 30.4 µM and 26.8 µM
- GI50 [18]: 18 µM and 11.1 µM
- TGI [18]: 35.9 µM and 26.3 µM
- GI50 [19]: 17.5 µM and 15.4 µM
- TGI [19]: 32.9 µM and 29.9 µM
- GI50 [20]: 12.9 µM and 16.4 µM
- TGI [20]: 27.4 µM and 33.2 µM
- GI50 [21]: 16.3 µM and 17.3 µM
- TGI [21]: 36.5 µM and 36.9 µM
- GI50 [22]: 11.4 µM and 11.7 µM
- TGI [22]: 28 µM and 28.9 µM
- GI50 [23]: 24.6 µM and 14.6 µM
- TGI [23]: 41.8 µM and 31.9 µM
- GI50 [24]: 17.3 µM and 13.9 µM
- TGI [24]: 31.5 µM and 27.3 µM
- GI50 [25]: 18.5 µM and 17.7 µM
- TGI [25]: 37.4 µM and 37.6 µM
- GI50 [26]: 5.25 µM and 2.93 µM
- TGI [26]: 18.6 µM and 8.85 µM
- GI50 [27]: 16.1 µM and 15.3 µM
- TGI [27]: 30.5 µM and 29.9 µM
- GI50 [28]: 17.1 µM and 14.9 µM
- TGI [28]: 33.1 µM and 29.8 µM
- GI50 [29]: 11.4 µM and 10.7 µM
- TGI [29]: 24.2 µM and 23.6 µM
- GI50 [30]: 10 µM and 5.12 µM
- TGI [30]: 21.6 µM and 16.3 µM
- GI50 [31]: 19.1 µM and 14.6 µM
- TGI [31]: 33.5 µM and 28 µM
- GI50 [32]: 13.4 µM and 12.5 µM
- TGI [32]: 28.9 µM and 26.4 µM
- GI50 [33]: 8 µM and 2.51 µM
- TGI [33]: 21.5 µM and 6.78 µM
- GI50 [34]: 10.4 µM and 6.88 µM
- TGI [34]: 24.9 µM and 21.8 µM
- GI50 [35]: 16.5 µM and 14.8 µM
- TGI [35]: 31.5 µM and 29.5 µM
- GI50 [36]: 15.4 µM
- TGI [36]: 29.7 µM
- GI50 [37]: 15.3 µM and 12.9 µM
- TGI [37]: 29.6 µM and 27.3 µM
- GI50 [38]: 15.1 µM and 13 µM
- TGI [38]: 28.5 µM and 26.7 µM
- GI50 [39]: 10.1 µM and 9.6 µM
- TGI [39]: 21.6 µM and 22.1 µM
- GI50 [40]: 9.56 µM and 4.52 µM
- TGI [40]: 22.5 µM and 14.3 µM
- GI50 [41]: 13.6 µM and 13.2 µM
- TGI [41]: 30.9 µM and 33.1 µM
- GI50 [42]: 16.1 µM and 15.4 µM
- TGI [42]: 29.6 µM and 28.8 µM
- GI50 [43]: 10.9 µM and 10.2 µM
- TGI [43]: 23.1 µM and 22.7 µM
- GI50 [44]: 8.89 µM and 6.3 µM
- TGI [44]: 21.8 µM and 19.4 µM
- GI50 [45]: 6.72 µM and 6.83 µM
- TGI [45]: 20.9 µM and 21.1 µM
- GI50 [46]: 17.5 µM and 14.3 µM
- TGI [46]: 33.2 µM and 28.5 µM
- GI50 [47]: 16.8 µM and 16.3 µM
- TGI [47]: 32.4 µM and 32.1 µM
- GI50 [48]: 15.9 µM and 12.6 µM
- TGI [48]: 30.7 µM and 26.5 µM
- GI50 [49]: 18 µM and 17.6 µM
- TGI [49]: 34.3 µM and 34 µM
- GI50 [50]: 15.4 µM and 12.6 µM
- TGI [50]: 30 µM and 26.9 µM
- GI50 [51]: 16.6 µM and 11.4 µM
- TGI [51]: 36.3 µM and 28.4 µM
- GI50 [52]: 14.7 µM and 9.46 µM
- TGI [52]: 30.2 µM and 23.4 µM
- GI50 [53]: 5.19 µM and 6.53 µM
- TGI [53]: 18.4 µM and 20.6 µM
- GI50 [54]: 12.3 µM and 12.5 µM
- TGI [54]: 24.7 µM and 26 µM
- GI50 [55]: 9 µM and 7.71 µM
- TGI [55]: 23.7 µM and 23.2 µM
- GI50 [56]: 6.38 µM and 7 µM
- TGI [56]: 19.5 µM and 20.5 µM
- GI50 [57]: 10.1 µM and 8.21 µM
- TGI [57]: 21.8 µM and 22.1 µM
